This note sets out measurements from patent US4605660A, “Indeno[2,1-c]pyridine compounds, and their use as calcium channel blockers” (Merck & Co., Inc., priority 1985, dated 1986).

The test system of the experiment is Rat Aorta. The experiment is described as follows: Inhibition of calcium chloride-induced contraction of depolarized rat aorta (vascular smooth muscle segments in tissue bath). It is filed as cell-based, male Sprague-Dawley rats. The following applies: contraction induced by 1.0 mM calcium chloride; for inhibition at 10 µM / inhibition at 1 µM: Rattus norvegicus, read-out: Percent Inhibition of Contraction of Rat Aorta; for inhibition at 10 µM: at 10^-5 M. As to the method: The property may be observed in a test in which segments of vascular smooth muscle obtained from male Sprague-Dawley rats are suspended in physiological salt solution in a tissue bath instrumented for recording contractions. After the tissue has been equilibrated, washed in calcium-free physiological salt solution and then depolarized, 1.0 mM calcium chloride is re-added to induce contraction. […] From measuring the initial contraction as well as the second contraction in the presence of the test compound, the extent of inhibition may be calculated.

Consider `CCOC(=O)C1=C(C)N[C@@](C)(C#N)[C@]2(C(=O)OCC)[C@@H](O)c3ccccc3[C@H]12` (relative stereo) [Compound IIIA-1, 4a(R,S),9a(S,R)-Diethyl 1-cyano-1,3-dimethyl-2,4a,9,9a-tetrahydro-9-hydroxy-9H-indeno[2,1-c]pyridine-4,9a-dicarboxylate], for which the inhibition at 10 µM is 84%.
For the compound `COC(=O)C1=C(C)N[C@@](C)(C#N)[C@]2(C(=O)OC)[C@@H](O)c3cc(OC)ccc3[C@H]12` (relative stereo) [Compound IIIA-2, 4a(R,S),9a(S,R)-Dimethyl 1-cyano-9-hydroxy-7-methoxy-2,4a,9,9a-tetrahydro-1,3-dimethyl-9H-indeno[2,1-c]pyridine-4,9a-dicarboxylate hydrate], the inhibition at 1 µM (at 10^-6 M) was found to be 4%.
With `COC(=O)C1=C(C)N[C@](C)(C#N)[C@]2(C(=O)OC)[C@@H](O)c3cc(OC)ccc3[C@H]12` (relative stereo) [Compound IIIB-2, 4a(R,S),9a(S,R)-Dimethyl 1-cyano-9-hydroxy-7-methoxy-2,4a,9,9a-tetrahydro-1,3-dimethyl-9H-indeno[2,1-c]pyridine-4,9a-dicarboxylate], the inhibition at 1 µM (at 10^-6 M) stood at 2%.
As to `CCOC(=O)C1=C(C)N[C@@](C)(C#N)[C@]2(C(=O)OCC)[C@@H](OC(C)=O)c3ccccc3[C@H]12` (relative stereo) [Compound IVA-1, 4a(R,S),9a(S,R)-Diethyl 9-acetoxy-1-cyano-2,4a,9,9a-tetrahydro-1,3-dimethyl-9H-indeno[2,1-c]pyridine-4,9a-dicarboxylate], the inhibition at 10 µM worked out at 62%.
With `CCOC(=O)C1=C(C)N[C@](C)(C#N)[C@]2(C(=O)OCC)[C@@H](OC(C)=O)c3ccccc3[C@H]12` (relative stereo) [Compound IVB-1, 4a(R,S),9a(S,R)-Diethyl 9-acetoxy-1-cyano-2,4a,9,9a-tetrahydro-1,3-dimethyl-9H-indeno[2,1-c]pyridine-4,9a-dicarboxylate], the inhibition at 1 µM (at 10^-6 M) amounted to 6%.
As for `CCOC(=O)C1=C(C)N[C@@](C)(C#N)[C@]2(C(=O)OCC)[C@H](Cl)c3ccccc3[C@H]12` (relative stereo) [Compound V-1, 4a(R,S),9a(S,R)-Diethyl 9-chloro-1-cyano-2,4a,9,9a-tetrahydro-1,3-dimethyl-9H-indeno[2,1-c]pyridine-4,9a-dicarboxylate], the inhibition at 10 µM came to 24%.
Regarding `CCOC(=O)C1=C(C)NC(C)(C#N)[C@]2(C(=O)OCC)C(O)c3ccccc3[C@H]12` (stereo partly drawn) [Compound IIIB-1, 4a(R,S),9a(S,R)-Diethyl 1-cyano-1,3-dimethyl-2,4a,9,9a-tetrahydro-9-hydroxy-9H-indeno[2,1-c]pyridine-4,9a-dicarboxylate], for the setting “at 10^-6 M”, the “Percent Inhibition of Contraction of Rat Aorta” value stood at 52%.
